Laboratory results from patent publication US20240197871A1, “COMBINATION OF A CAR T CELL THERAPY AND AN IMMUNOMODULATORY COMPOUND FOR TREATMENT OF LYMPHOMA” (Juno Therapeutics, Inc., priority 2021, published 2024).

Test system: chronically stimulated anti-CD19 CAR T cells
Experiment: RNA-seq gene expression of chronically stimulated CAR T cells
Type: cell-based, human
Description: Five days after re-challenge, CAR T cells were sorted from tumor spheroids, and gene expression was analyzed by RNA sequencing (RNA-seq). Libraries for RNA-seq were sequenced, and reads were mapped to the Genome Reference Consortium Human Build 38 (GRCh38) human reference genome. Gene expression levels were quantified, and differential expression was performed using DESeq2. Gene expression was compared between chronically stimulated CAR T cells treated with Compound C during stimulation and untreated chronically stimulated CAR T cells, as well as between untreated chronically stimulated CAR T cells and non-stimulated CAR T cells. Differential expression was calculated based on treatment effects with 1 nM and 10 nM of the compounds. Differential locus selection cut offs were q≤0.05 and absolute log2 fold change ≥0.5.
Pathway analysis of CAR T RNA-seq data using the Kyoto Encyclopedia of Genes and Genomes (KEGG) was also performed using clusterProfiler. Pathways whose upregulation by chronic stimulation was prevented or reduced by treatment with Compound C are shown in FIG. 3J and include specific cell proliferation pathways. Gene ratios as shown in FIG. 3J were calculated as the percentage of significant genes over total genes in a given pathway.
Gene expression of chronically stimulated CAR T cells was also analyzed by RNA sequencing as in Example 3. […]

O=C1CC[C@H](N2C(=O)c3cccc(NCc4ccc(CN5CC(N6CCOCC6)C5)cc4F)c3C2=O)C(=O)N1 [Compound C, (S)-2-(2,6-dioxopiperidin-3-yl)-4-((2-fluoro-4-((3-morpholinoazetidin-1-yl)methyl)benzyl)amino)isoindoline-1,3-dione]
gene expression vs untreated chronically stimulated CAR T cells (RNA-seq) (treatment during chronic stimulation (concurrent), 1 nM and 10 nM): altered gene expression | gene expression vs untreated chronically stimulated CAR T cells (RNA-seq) (treatment during re-challenge (rescue)): altered gene expression
